Measurements: patent publication US6737383B1, “Herbicidal oxadiazolidines” (priority 1999, dated 2004)

How the values were obtained:
bedstraw = test: Test B pre/postemergence bedstraw; format: in vivo, Galium aparine
Method in brief: (§1)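 Herbicidal effect was estimated by eye on a ten-point control scale after plants spent twelve to sixteen days in a greenhouse following soil or foliar treatment. Foliar sprays targeted plants at one to four leaves; all doses were formulated in a non-phytotoxic solvent with surfactant.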

blackgrass = test: Test B pre/postemergence blackgrass; format: in vivo, Alopecurus myosuroides
Method in brief: as §1

giant foxtail = test: Test B pre/postemergence giant foxtail; format: in vivo, Setaria faberii
Method in brief: as §1

morningglory = test: Test B pre/postemergence morningglory; format: in vivo, Ipomoea hederacea
Method in brief: as §1

pigweed = test: Test B pre/postemergence pigweed; format: in vivo, Amaranthus retroflexus
Method in brief: as §1

rape = test: Test B pre/postemergence rape; format: in vivo, Brassica napus
Method in brief: as §1

soybean = test: Test B pre/postemergence soybean; format: in vivo, Glycine max
Method in brief: as §1

sugar beet = test: Test B pre/postemergence sugar beet; format: in vivo, Beta vulgaris
Method in brief: as §1

velvetleaf = test: Test B pre/postemergence velvetleaf; format: in vivo, Abutilon theophrasti
Method in brief: as §1

wheat = test: Test B pre/postemergence wheat; format: in vivo, Triticum aestivum
Method in brief: as §1

wild oat = test: Test B pre/postemergence wild oat; format: in vivo, Avena fatua
Method in brief: as §1

purple nutsedge = test: Test B pre/postemergence purple nutsedge; format: in vivo, Cyperus rotundus
Method in brief: as §1

rice = test: Test B flood test rice; format: in vivo, Oryza sativa
Method in brief: (§2)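 Each value is a visual injury score relative to controls, with 10 meaning complete control and 0 no effect. Evaluation took place twelve to sixteen days after the 2-leaf-stage plants were treated and kept in the greenhouse.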

smallflower flatsedge = test: Test B flood test smallflower flatsedge; format: in vivo, Cyperus difformis
Method in brief: as §2

duck salad = test: Test B flood test duck salad; format: in vivo, Heteranthera limosa
Method in brief: as §2

bamyardgrass = test: Test B flood test barnyardgrass; format: in vivo, Echinochloa crus-galli
Method in brief: as §2

[1] = Preemergence, Rate 62 g/ha, scale of 0 to 10 where 0 is no effect and 10 is complete control
[2] = Preemergence, Rate 250 g/ha, scale of 0 to 10 where 0 is no effect and 10 is complete control
[3] = Preemergence, Rate 500 g/ha, scale of 0 to 10 where 0 is no effect and 10 is complete control
[4] = Rate 62 g/ha, Postemergence, scale of 0 to 10 where 0 is no effect and 10 is complete control
[5] = Rate 125 g/ha, Postemergence, scale 0 to 10
[6] = Rate 125 g/ha, Preemergence, scale of 0 to 10 where 0 is no effect and 10 is complete control
[7] = Rate 500 g/ha, Postemergence, scale 0 to 10, 0 no effect, 10 complete control
[8] = Rate 62 g/ha, headed Pre-emergence (flood test species), scale 0 to 10 (0 no effect, 10 complete control)
[9] = Rate 125 g/ha, Pre-emergence, flood test species, scale 0 to 10 where 0 is no effect and 10 is complete control
[10] = Rate 250 g/ha, Pre-emergence, flood-test species, scale 0 to 10, 0 is no effect, 10 is complete control
[11] = Rate 500 g/ha, Pre-emergence, flood test species, scale 0 to 10 (0 no effect, 10 complete control)

Q: How did the “Bedstraw plant response rating” value (bedstraw; [1]) turn out when `CCc1ccc(N(C(=O)n2oc(=O)n(-c3ccccc3C)c2=O)C(C)C)cc1` [Compound 230] was run?
A: 0

Q: And the “Bedstraw plant response rating” value (bedstraw; [2])?
A: 0

Q: And the “Plant response rating, Bedstraw” value (bedstraw; [3])?
A: 0

Q: And the “Bedstraw plant response rating” value (bedstraw; [4])?
A: 0

Q: And the “Bedstraw plant response rating” value (bedstraw; [5])?
A: 0

Q: What about the “Bedstraw plant response rating” value (bedstraw; [6]) of the same compound?
A: 0

Q: And the “Plant response rating (0 to 10; 0 is no effect, 10 is complete control), Bedstraw” value (bedstraw; Rate 250 g/ha, Postemergence)?
A: 0

Q: And the “Bedstraw plant response rating” value (bedstraw; [7])?
A: 0

Q: What about the “Blackgrass plant response rating” value (blackgrass; [1]) of the same compound?
A: 0

Q: What about the “Blackgrass plant response rating” value (blackgrass; [2]) of the same compound?
A: 0

Q: What about the “Plant response rating, Blackgrass” value (blackgrass; [3]) of the same compound?
A: 2

Q: And the “Blackgrass plant response rating” value (blackgrass; [4])?
A: 0

Q: What about the “Blackgrass plant response rating” value (blackgrass; [5]) of the same compound?
A: 0

Q: What about the “Blackgrass plant response rating” value (blackgrass; [6]) of the same compound?
A: 0

Q: And the “Plant response rating (0 to 10; 0 is no effect, 10 is complete control), Blackgrass” value (blackgrass; Rate 250 g/ha, Postemergence)?
A: 0

Q: What about the “Blackgrass plant response rating” value (blackgrass; [7]) of the same compound?
A: 0

Q: What about the “Giant foxtail plant response rating” value (giant foxtail; [1]) of the same compound?
A: 2

Q: What about the “Giant foxtail plant response rating” value (giant foxtail; [2]) of the same compound?
A: 8

Q: What about the “Plant response rating, Giant foxtail” value (giant foxtail; [3]) of the same compound?
A: 9

Q: What about the “Giant foxtail plant response rating” value (giant foxtail; [4]) of the same compound?
A: 0

Q: What about the “Giant foxtail plant response rating” value (giant foxtail; [5]) of the same compound?
A: 0

Q: And the “Giant foxtail plant response rating” value (giant foxtail; [6])?
A: 2

Q: And the “Plant response rating (0 to 10; 0 is no effect, 10 is complete control), Giant foxtail” value (giant foxtail; Rate 250 g/ha, Postemergence)?
A: 0

Q: And the “Giant foxtail plant response rating” value (giant foxtail; [7])?
A: 1

Q: And the “Morningglory plant response rating” value (morningglory; [1])?
A: 0

Q: What about the “Morningglory plant response rating” value (morningglory; [2]) of the same compound?
A: 0

Q: What about the “Plant response rating, Morningglory” value (morningglory; [3]) of the same compound?
A: 2

Q: What about the “Morningglory plant response rating” value (morningglory; [4]) of the same compound?
A: 0

Q: And the “Morningglory plant response rating” value (morningglory; [5])?
A: 2

Q: What about the “Morningglory plant response rating” value (morningglory; [6]) of the same compound?
A: 0

Q: And the “Plant response rating (0 to 10; 0 is no effect, 10 is complete control), Morningglory” value (morningglory; Rate 250 g/ha, Postemergence)?
A: 2

Q: And the “Morningglory plant response rating” value (morningglory; [7])?
A: 7

Q: And the “Redroot pigweed plant response rating” value (pigweed; [1])?
A: 0

Q: And the “Redroot pigweed plant response rating” value (pigweed; [2])?
A: 0

Q: What about the “Plant response rating, Redroot pigweed” value (pigweed; [3]) of the same compound?
A: 0

Q: What about the “Redroot pigweed plant response rating” value (pigweed; [4]) of the same compound?
A: 0

Q: And the “Redroot pigweed plant response rating” value (pigweed; [5])?
A: 0

Q: And the “Redroot pigweed plant response rating” value (pigweed; [6])?
A: 0

Q: And the “Plant response rating (0 to 10; 0 is no effect, 10 is complete control), Redroot pigweed” value (pigweed; Rate 250 g/ha, Postemergence)?
A: 0

Q: What about the “Redroot pigweed plant response rating” value (pigweed; [7]) of the same compound?
A: 0

Q: And the “Rape plant response rating” value (rape; [1])?
A: 0

Q: And the “Rape plant response rating” value (rape; [2])?
A: 0

Q: What about the “Plant response rating, Rape” value (rape; [3]) of the same compound?
A: 0

Q: What about the “Rape plant response rating” value (rape; [4]) of the same compound?
A: 0

Q: What about the “Rape plant response rating” value (rape; [5]) of the same compound?
A: 0

Q: And the “Rape plant response rating” value (rape; [6])?
A: 0

Q: What about the “Plant response rating (0 to 10; 0 is no effect, 10 is complete control), Rape” value (rape; Rate 250 g/ha, Postemergence) of the same compound?
A: 0

Q: And the “Rape plant response rating” value (rape; [7])?
A: 0

Q: And the “Soybean plant response rating” value (soybean; [1])?
A: 0

Q: And the “Soybean plant response rating” value (soybean; [2])?
A: 0

Q: What about the “Plant response rating, Soybean” value (soybean; [3]) of the same compound?
A: 0

Q: What about the “Soybean plant response rating” value (soybean; [4]) of the same compound?
A: 0

Q: And the “Soybean plant response rating” value (soybean; [5])?
A: 0

Q: What about the “Soybean plant response rating” value (soybean; [6]) of the same compound?
A: 0

Q: And the “Plant response rating (0 to 10; 0 is no effect, 10 is complete control), Soybean” value (soybean; Rate 250 g/ha, Postemergence)?
A: 4

Q: And the “Soybean plant response rating” value (soybean; [7])?
A: 5

Q: And the “Sugarbeets plant response rating” value (sugar beet; [1])?
A: 0

Q: What about the “Sugarbeets plant response rating” value (sugar beet; [2]) of the same compound?
A: 0

Q: And the “Plant response rating, Sugarbeets” value (sugar beet; [3])?
A: 0

Q: What about the “Sugarbeets plant response rating” value (sugar beet; [4]) of the same compound?
A: 0

Q: And the “Sugarbeets plant response rating” value (sugar beet; [5])?
A: 0

Q: And the “Sugarbeets plant response rating” value (sugar beet; [6])?
A: 0

Q: And the “Plant response rating (0 to 10; 0 is no effect, 10 is complete control), Sugarbeets” value (sugar beet; Rate 250 g/ha, Postemergence)?
A: 0

Q: And the “Sugarbeets plant response rating” value (sugar beet; [7])?
A: 0

Q: And the “Velvetleaf plant response rating” value (velvetleaf; [1])?
A: 0

Q: And the “Velvetleaf plant response rating” value (velvetleaf; [2])?
A: 0

Q: What about the “Plant response rating, Velvetleaf” value (velvetleaf; [3]) of the same compound?
A: 0

Q: And the “Velvetleaf plant response rating” value (velvetleaf; [4])?
A: 0

Q: What about the “Velvetleaf plant response rating” value (velvetleaf; [5]) of the same compound?
A: 0

Q: What about the “Velvetleaf plant response rating” value (velvetleaf; [6]) of the same compound?
A: 0

Q: What about the “Plant response rating (0 to 10; 0 is no effect, 10 is complete control), Velvetleaf” value (velvetleaf; Rate 250 g/ha, Postemergence) of the same compound?
A: 0

Q: And the “Velvetleaf plant response rating” value (velvetleaf; [7])?
A: 0

Q: And the “Wheat plant response rating” value (wheat; [1])?
A: 0

Q: And the “Wheat plant response rating” value (wheat; [2])?
A: 0

Q: What about the “Plant response rating, Wheat” value (wheat; [3]) of the same compound?
A: 0

Q: And the “Wheat plant response rating” value (wheat; [4])?
A: 0

Q: What about the “Wheat plant response rating” value (wheat; [5]) of the same compound?
A: 0

Q: And the “Wheat plant response rating” value (wheat; [6])?
A: 0

Q: And the “Plant response rating (0 to 10; 0 is no effect, 10 is complete control), Wheat” value (wheat; Rate 250 g/ha, Postemergence)?
A: 0

Q: And the “Wheat plant response rating” value (wheat; [7])?
A: 0

Q: And the “Wild oats plant response rating” value (wild oat; [1])?
A: 0

Q: What about the “Wild oats plant response rating” value (wild oat; [2]) of the same compound?
A: 0

Q: And the “Plant response rating, Wild oats” value (wild oat; [3])?
A: 0

Q: And the “Wild oats plant response rating” value (wild oat; [4])?
A: 0

Q: What about the “Wild oats plant response rating” value (wild oat; [5]) of the same compound?
A: 0

Q: And the “Wild oats plant response rating” value (wild oat; [6])?
A: 0

Q: And the “Plant response rating (0 to 10; 0 is no effect, 10 is complete control), Wild oats” value (wild oat; Rate 250 g/ha, Postemergence)?
A: 0

Q: What about the “Wild oats plant response rating” value (wild oat; [7]) of the same compound?
A: 0

Q: And the “Nutsedge plant response rating” value (purple nutsedge; [1])?
A: 0

Q: What about the “Nutsedge plant response rating” value (purple nutsedge; [2]) of the same compound?
A: 0

Q: And the “Plant response rating, Nutsedge” value (purple nutsedge; [3])?
A: 0

Q: And the “Nutsedge plant response rating” value (purple nutsedge; [4])?
A: 0

Q: What about the “Nutsedge plant response rating” value (purple nutsedge; [5]) of the same compound?
A: 0

Q: What about the “Nutsedge plant response rating” value (purple nutsedge; [6]) of the same compound?
A: 0

Q: What about the “Plant response rating (0 to 10; 0 is no effect, 10 is complete control), Nutsedge” value (purple nutsedge; Rate 250 g/ha, Postemergence) of the same compound?
A: 0

Q: And the “Nutsedge plant response rating” value (purple nutsedge; [7])?
A: 0

Q: What about the “Rice plant response rating” value (rice; [8]) of the same compound?
A: 0

Q: And the “Rice plant response rating” value (rice; [9])?
A: 0

Q: And the “Rice plant response rating” value (rice; [10])?
A: 0

Q: What about the “Rice plant response rating” value (rice; [11]) of the same compound?
A: 0

Q: And the “S. Flatsedge plant response rating” value (smallflower flatsedge; [8])?
A: 0

Q: And the “S. Flatsedge plant response rating” value (smallflower flatsedge; [9])?
A: 0

Q: And the “S. Flatsedge plant response rating” value (smallflower flatsedge; [10])?
A: 0

Q: And the “S. Flatsedge plant response rating” value (smallflower flatsedge; [11])?
A: 0

Q: And the “Ducksalad plant response rating” value (duck salad; [8])?
A: 0

Q: What about the “Ducksalad plant response rating” value (duck salad; [9]) of the same compound?
A: 0

Q: What about the “Ducksalad plant response rating” value (duck salad; [10]) of the same compound?
A: 0

Q: And the “Ducksalad plant response rating” value (duck salad; [11])?
A: 0

Q: And the “Barnyardgrass plant response rating” value (bamyardgrass; [8])?
A: 0

Q: What about the “Barnyardgrass plant response rating” value (bamyardgrass; [9]) of the same compound?
A: 0

Q: And the “Barnyardgrass plant response rating” value (bamyardgrass; [10])?
A: 0

Q: What about the “Barnyardgrass plant response rating” value (bamyardgrass; [11]) of the same compound?
A: 0
